Values joined by “and” are separate entries in the source; they are usually repeats but may differ in a detail not shown here. Equal values may be shown once. Inconclusive results and toxic doses are left out.
Test system: AKR/Lw mice, AKR lymphoma ip, median survival T/C
Assay: NCI In Vivo Anticancer Drug Screen. Data for tumor model Lymphoma AKR (Transplanted) (intraperitoneal) in AKR/Lw mice
Conditions: endpoint: median survival time, higher = longer survival
Experimental: The antitumor activity of compounds was measured in mice bearing transplantable tumors. Survival or tumor size were measured and the results are expressed as the measurement made in the treated group (T) divided by the measurement made in the vehicle treated control group (C). The tumor model used in this assay is Lymphoma AKR (Transplanted) (intraperitoneal) in AKR/Lw mice

[1] = dose: 2.0 mg/kg/injection, schedule: Q01DX009 (ip), vehicle: saline
[2] = dose: 12.5 mg/kg/injection, schedule: Q01DX001 (ip), vehicle: saline
[3] = dose: 12.5 mg/kg/injection, schedule: Q04DX003 (ip), vehicle: saline
[4] = dose: 25.0 mg/kg/injection, schedule: Q01DX001 (ip), vehicle: saline
[5] = dose: 25.0 mg/kg/injection, schedule: Q04DX003 (ip), vehicle: saline
[6] = dose: 200.0 mg/kg/injection, schedule: Q01DX001 (ip), vehicle: Klucel (hydroxypropylcellulose) (HPC)
[7] = dose: 100.0 mg/kg/injection, schedule: Q01DX001 (ip), vehicle: saline
[8] = dose: 200.0 mg/kg/injection, schedule: Q01DX001 (ip), vehicle: saline
[9] = dose: 400.0 mg/kg/injection, schedule: Q01DX001 (ip), vehicle: saline
[10] = dose: 400.0 mg/kg/injection, schedule: Q01DX001 (ip), vehicle: Klucel (hydroxypropylcellulose) (HPC)
[11] = dose: 6.2 mg/kg/injection, schedule: Q04DX003 (ip), vehicle: saline

CS(=O)(=O)OCCCNCCCOS(C)(=O)=O
T/C (dose: 1.6 mg/kg/injection, schedule: Q01DX009 (ip), vehicle: saline): 94 % of control
T/C (dose: 1.9 mg/kg/injection, schedule: Q01DX009 (ip), vehicle: saline): 96 % of control
T/C [1]: 107 % of control
T/C (dose: 3.1 mg/kg/injection, schedule: Q01DX009 (ip), vehicle: saline): 88 % of control and 100 % of control and 115 % of control
T/C (dose: 3.8 mg/kg/injection, schedule: Q01DX009 (ip), vehicle: saline): 106 % of control
T/C (dose: 4.0 mg/kg/injection, schedule: Q01DX009 (ip), vehicle: saline): 103 % of control
T/C (dose: 6.2 mg/kg/injection, schedule: Q01DX009 (ip), vehicle: saline): 102 % of control
T/C (dose: 6.3 mg/kg/injection, schedule: Q01DX009 (ip), vehicle: saline): 97 % of control
T/C (dose: 8.0 mg/kg/injection, schedule: Q01DX009 (ip), vehicle: saline): 100 % of control
T/C [2]: 124 % of control
T/C [3]: 102 % of control and 106 % of control
T/C [4]: 110 % of control
T/C [5]: 106 % of control and 112 % of control
T/C (dose: 27.0 mg/kg/injection, schedule: Q04DX003 (ip), vehicle: water): 113 % of control
T/C (dose: 45.0 mg/kg/injection, schedule: Q01DX001 (ip), vehicle: saline): 112 % of control
T/C (dose: 60.0 mg/kg/injection, schedule: Q01DX009 (ip), vehicle: saline): 100 % of control and 123 % of control
T/C (dose: 75.0 mg/kg/injection, schedule: Q01DX001 (ip), vehicle: saline): 108 % of control
T/C (dose: 108.0 mg/kg/injection, schedule: Q04DX003 (ip), vehicle: water): 192 % of control

CC(=O)c1ccc2ccccc2c1O
T/C (dose: 25.0 mg/kg/injection, schedule: Q01DX001 (ip), vehicle: Klucel (hydroxypropylcellulose) (HPC)): 102 % of control
T/C (dose: 50.0 mg/kg/injection, schedule: Q01DX001 (ip), vehicle: Klucel (hydroxypropylcellulose) (HPC)): 88 % of control
T/C [6]: 88 % of control
T/C (dose: 200.0 mg/kg/injection, schedule: Q01DX001 (ip), vehicle: other): 104 % of control
T/C (dose: 400.0 mg/kg/injection, schedule: Q01DX001 (ip), vehicle: other): 111 % of control

COc1cccc2c1CCC1=C2CC2C(=O)C1CCC2(C)O (configuration not stated)
T/C [7]: 88 % of control
T/C [8]: 97 % of control
T/C [9]: 100 % of control

CC(=O)N1C(=O)C2(c3ccccc31)c1cccc3c1C(=C1C(=O)OC(=O)C12)C(=O)N3C(C)=O (configuration not stated)
T/C [8]: 86 % of control
T/C [9]: 91 % of control

C[C@@H]1C[C@H]2[C@@H]3CCC4=CC(=O)C=C[C@]4(C)[C@@]3(F)[C@@H](O)C[C@]2(C)[C@@]1(O)C(=O)CO
T/C (dose: 0.25 mg/kg/injection, schedule: Q01DX004 (sc), vehicle: saline): 121 % of control
T/C (dose: 0.5 mg/kg/injection, schedule: Q01DX004 (sc), vehicle: saline): 103 % of control and 110 % of control
T/C (dose: 1.0 mg/kg/injection, schedule: Q01DX004 (sc), vehicle: saline): 103 % of control and 121 % of control
T/C (dose: 1.8 mg/kg/injection, schedule: Q01DX004 (sc), vehicle: saline): 89 % of control
T/C (dose: 2.6 mg/kg/injection, schedule: Q01DX004 (sc), vehicle: saline): 103 % of control
T/C (dose: 4.0 mg/kg/injection, schedule: Q01DX004 (sc), vehicle: saline): 103 % of control
T/C (dose: 4.5 mg/kg/injection, schedule: Q01DX004 (sc), vehicle: saline): 96 % of control

OCC1=C(CO)C2(Cl)C(Cl)=C(Cl)C1(Cl)C2(Cl)Cl
T/C [6]: 95 % of control
T/C [10]: 91 % of control

C/C=C(/Cl)c1c(C)cc(C)c(CC(=O)O)c1C
T/C [6]: 106 % of control
T/C [10]: 109 % of control

COc1ccc(NC(=S)Nc2ccccn2)cc1
T/C (dose: 100.0 mg/kg/injection, schedule: Q01DX001 (ip), vehicle: Klucel (hydroxypropylcellulose) (HPC)): 100 % of control

O=C[C@@H](CO)O[C@H](C=O)n1cnc2c(=O)[nH]cnc21
T/C (dose: 3.0 mg/kg/injection, schedule: Q01DX009 (ip), vehicle: saline): 104 % of control and 123 % of control
T/C (dose: 6.0 mg/kg/injection, schedule: Q01DX009 (ip), vehicle: saline): 102 % of control and 108 % of control and 121 % of control
T/C [11]: 102 % of control
T/C (dose: 6.25 mg/kg/injection, schedule: Q01DX009 (ip), vehicle: saline): 112 % of control
T/C (dose: 12.0 mg/kg/injection, schedule: Q01DX009 (ip), vehicle: saline): 100 % of control and 112 % of control
T/C (dose: 12.5 mg/kg/injection, schedule: Q01DX009 (ip), vehicle: saline): 94 % of control and 106 % of control
T/C [3]: 100 % of control and 105 % of control
T/C (dose: 24.0 mg/kg/injection, schedule: Q01DX009 (ip), vehicle: saline): 112 % of control
T/C [4]: 89 % of control and 105 % of control
T/C [5]: 87 % of control and 113 % of control
T/C (dose: 50.0 mg/kg/injection, schedule: Q01DX001 (ip), vehicle: saline): 89 % of control
T/C (dose: 60.0 mg/kg/injection, schedule: Q04DX003 (ip), vehicle: water): 114 % of control
T/C (dose: 75.0 mg/kg/injection, schedule: Q01DX009 (ip), vehicle: saline): 103 % of control and 238 % of control
T/C [7]: 92 % of control and 97 % of control (2×)
T/C (dose: 240.02 mg/kg/injection, schedule: Q04DX003 (ip), vehicle: water): 222 % of control
T/C (dose: 500.0 mg/kg/injection, schedule: Q01DX001 (ip), vehicle: saline): 120 % of control

CC[C@H]1CN2CCc3cc(OC)c(OC)cc3[C@@H]2C[C@@H]1C[C@H]1NCCc2cc(OC)c(OC)cc21
T/C (dose: 0.5 mg/kg/injection, schedule: Q01DX009 (ip), vehicle: saline): 100 % of control
T/C (dose: 0.75 mg/kg/injection, schedule: Q04DX003 (ip), vehicle: saline): 87 % of control
T/C (dose: 1.0 mg/kg/injection, schedule: Q01DX009 (ip), vehicle: saline): 96 % of control and 107 % of control
T/C (dose: 1.25 mg/kg/injection, schedule: Q01DX009 (ip), vehicle: saline): 102 % of control
T/C (dose: 1.5 mg/kg/injection, schedule: Q04DX003 (ip), vehicle: saline): 87 % of control
T/C [1]: 96 % of control
T/C (dose: 2.5 mg/kg/injection, schedule: Q01DX009 (ip), vehicle: saline with Tween-80): 100 % of control
T/C (dose: 3.0 mg/kg/injection, schedule: Q01DX001 (ip), vehicle: saline): 95 % of control
T/C (dose: 3.0 mg/kg/injection, schedule: Q04DX003 (ip), vehicle: saline): 97 % of control
T/C (dose: 5.0 mg/kg/injection, schedule: Q01DX009 (ip), vehicle: saline with Tween-80): 122 % of control
T/C (dose: 5.0 mg/kg/injection, schedule: Q04DX003 (ip), vehicle: saline): 95 % of control
T/C (dose: 6.0 mg/kg/injection, schedule: Q01DX001 (ip), vehicle: saline): 111 % of control
T/C (dose: 6.0 mg/kg/injection, schedule: Q04DX003 (ip), vehicle: saline): 96 % of control and 118 % of control
T/C (dose: 6.2 mg/kg/injection, schedule: Q01DX001 (ip), vehicle: saline): 105 % of control
T/C [11]: 96 % of control and 100 % of control and 124 % of control
T/C (dose: 6.25 mg/kg/injection, schedule: Q04DX003 (ip), vehicle: saline): 116 % of control and 117 % of control
T/C (dose: 7.5 mg/kg/injection, schedule: Q01DX001 (ip), vehicle: saline): 111 % of control
T/C (dose: 10.0 mg/kg/injection, schedule: Q01DX009 (ip), vehicle: saline with Tween-80): 106 % of control
T/C (dose: 12.0 mg/kg/injection, schedule: Q01DX001 (ip), vehicle: saline): 115 % of control
T/C [2]: 103 % of control and 113 % of control
T/C (dose: 15.0 mg/kg/injection, schedule: Q01DX001 (ip), vehicle: saline): 117 % of control

Source: PubChem BioAssay AID190 (DTP/NCI, 2004)
